We go through 4 compounds from patent publication US12258583B2, “Embryonic erythroblast-containing cell population and method for producing same, cell culture composition, and compound test method” (SUMITOMO CHEMICAL COMPANY, LIMITED, priority 2018, dated 2025).

Data set [1] deals with REL cells. The data set is described as follows: Differentiation culture of REL cells with inducer, β-globin gene family expression by real-time PCR. Format: cell-based, rat. Particulars: 1 mM HMBA. The method, then: (§1) The percentage of expression of the β-globin gene family expressed in cells of the above cell population was checked by real-time PCR. The floating cell population-containing medium at Day 10, 14, or 18 after the start of suspension culture (step (1)) was centrifuged for 5 min at 1000 rpm in a centrifuge (CF8DL; manufactured by Koki Holdings Co., Ltd.) to remove the supernatant. The resulting cells were washed with PBS (manufactured by Thermo Fisher Scientific, Inc.), centrifuged for 3 min at 7500 rpm in a centrifuge (centrifuge 5424; manufactured by Eppendorf, Inc.), and then subjected to total RNA extraction from the cells using an RNeasy Micro Kit (manufactured by QIAGEN, Inc.). The resulting total RNA was subjected to reverse transcription using SuperScript III (manufactured by Thermo Fisher Scientific, Inc.). Subsequently, the resulting cDNA was used as a template to perform real-time PCR by using TaqMan probes (manufactured by Thermo Fisher Scientific, Inc.) and a TaqMan Fast Advanced Master Mix (manufactured by Thermo Fisher Scientific, Inc.) in a 96-well plate under Fast PCR conditions according to the instruction in the package insert. The TaqMan probes used were human probes designated in Table 2.
(§2) The gene product containing a TaqMan probe target sequence for each member of the β-globin gene family, namely ε-globin, γ-globin, or β-globin, was used to draw a standard curve. Then, the mRNA copy number for each β-globin gene family member expressed was quantified. The value obtained by dividing the copy number for each β-globin gene family member expressed by the total β-globin gene family copy number was shown as the percentage of expression of each β-globin gene family member. The production of embryonic erythroblast-containing cell population and the analysis by real-time PCR were independently triplicated to calculate the average and the standard error.
REL cells, rat erythroleukemia cells, (obtained from Institute of Molecular Genetics and Genetic Engineering (Prof. Popovic Serbia)) were used as other hematopoietic cells to check a change in expression of ε-globin gene. REL cells were cultured and maintained as follows. RPMI medium (Roswell Park Memorial Institute 1640; manufactured by Thermo Fisher Scientific, Inc.) containing […] FBS (manufactured by Corning, Inc.) and 1% penicillin-streptomycin (manufactured by Sigma-Aldrich Co. LLC) (hereinafter, referred to as “REL medium”) was used, and the cells were subjected to suspension culture on a low-adherent 6-cm dish (manufactured by Sumitomo Bakelite Co., Ltd.). The floating cell-containing medium was collected once every 2 days, and centrifuged for 5 min at 1000 rpm in a centrifuge (SCT5BA; manufactured by Koki Holdings Co., Ltd.) to remove the supernatant. The REL cells were suspended in 5 mL of REL medium and seeded at 5×10^5 cells per dish, and cultured under conditions at 37° C. and 5% CO2.
An inducer (hexamethylene bisacetamide: HMBA) was added to REL cells to check a change in expression of ε-globin over time. For differentiation culture of REL cells, the medium used was REL medium containing HMBA (at a final concentration of 1 mM; manufactured by Sigma-Aldrich Co. LLC.). The REL cells were suspended in 5 mL of the above medium and seeded at 5×10^5 cells per low-adherent 6-cm dish (manufactured by Sumitomo Bakelite Co., Ltd.), and then cultured under conditions at 37° C. and 5% CO2. The floating cell-containing medium was collected at Day 0, 2, 4, or 8 after the start of differentiation culture, and centrifuged for 5 min at 1000 rpm in a centrifuge (SCT5BA; manufactured by Koki Holdings Co., Ltd.) to remove the supernatant.
Like the evaluation protocol by real-time PCR in Example 1, the percentage of expression of each β-globin gene family member expressed in cells was determined by real-time PCR. […] Almost all of the β-globin gene family were an adult erythroblast marker β-globin gene under any of the conditions.

Data set [2] relates to embryonic erythroblast-containing cell population produced from human iPS cells. The data set is described as follows: Compound test using embryonic erythroblast-containing cell population produced from human iPS cells (heme, PPIX by LC-MS, viable cell count, viability). In kind it is cell-based. The note with it: DHA 0.5 or 1 μM, SA 10 or 30 μM, Day 18 (Day 8 after start of step (C)); for viable cell count: FIG. 12C; for viability of cells: FIG. 12D. How it is done:
The procedure illustrated in FIG. 11 was used to conduct a compound test using an embryonic erythroblast-containing cell population produced from human iPS cells. Differentiation of human iPS cells was induced by substantially the same procedure as in Example 1 to produce an embryonic erythroblast-containing cell population at Day 10 after the start of suspension culture (step (A)) (Step (A) and Step (B)). The cells were centrifuged for 5 min at 1000 rpm in a centrifuge (CF8DL; manufactured by Koki Holdings Co., Ltd.) to remove the supernatant. Next, STEMdiff+B medium was added to the precipitate. Subsequently, the cells were suspended and seeded at 2×10^5 cells in 1.5 mL of medium per well of a […] 6-well plate (manufactured by Corning, Inc.). Then, suspension culture was started (step (C) was started). To the medium at that time was added, as a test compound, dihydroartemisinin (hereinafter, referred to as “DHA”) (at a final concentration of 0.5 μM or 1 μM) or succinylacetone (hereinafter, referred to as “SA”) (at a final concentration of 10 μM or 30 μM). As a solvent control, DMSO was added.
At Day 18 (Day 8 after the start of step (C)) after the start of suspension culture (step (A)), the resulting cell population-containing medium was collected from the 6-well plate. Next, 0.4×10^5 cells to 1×10^5 cells were pipetted into an Eppendorf tube, and centrifuged for 3 min at 7500 rpm in a centrifuge (centrifuge 5424; manufactured by Eppendorf, Inc.) to remove the supernatant and give a cell pellet. The concentration of heme or protoporphyrin IX (hereinafter, referred to as “PPIX”) included in this cell pellet was quantified using liquid chromatography-mass spectrometry (LC-MS) (step (D)). A change in the concentration of heme or PPIX by addition of a test compound was examined to be able to evaluate how the test compound affected the heme biosynthesis pathway. In addition, the number of cells collected after the culture was counted to determine viability.
The concentration of heme or PPIX was represented in weight per 10^6 cells (ng/10^6 cells). DHA or SA, which is known to inhibit heme synthesis, caused a decrease in the heme concentration at Day 18 (Day 8 after the start of step (C)) after the start of suspension culture (step (A)) when compared to a solvent control (FIG. 12A). […] A hypothesis that DHA can induce anemia by inhibiting the most downstream ferrochelatase has been proposed (Clark et al. (2018) Birth Defects Research 110: 553-578). […] In addition, DHA or SA decreased the viable cell count and viability of cells included in the cell population (FIGS. 12C and D). In Example 1, the cell population included embryonic erythroblasts at a high percentage.

For data set [3], the target named is T1, aminolevulinic acid dehydrogenase (Homo sapiens, UniProt P13716).
T1 sequence (P13716 1-330): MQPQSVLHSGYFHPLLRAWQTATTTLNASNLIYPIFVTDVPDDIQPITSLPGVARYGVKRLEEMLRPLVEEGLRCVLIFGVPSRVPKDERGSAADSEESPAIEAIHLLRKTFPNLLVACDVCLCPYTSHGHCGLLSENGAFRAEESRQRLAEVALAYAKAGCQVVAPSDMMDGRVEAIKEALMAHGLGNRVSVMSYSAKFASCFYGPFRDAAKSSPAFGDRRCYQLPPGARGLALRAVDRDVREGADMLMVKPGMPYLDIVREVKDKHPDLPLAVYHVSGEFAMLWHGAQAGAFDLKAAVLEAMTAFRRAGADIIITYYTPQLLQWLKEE
The note with it: Sassa et al. (1983); cited from earlier work.

Data set [4] concerns K562 cells. The data set is described as follows: Differentiation culture of K562 cells with inducer, β-globin gene family expression by real-time PCR. Format: cell-based, human. Particulars: 1 mM sodium butyrate. The method, then:
as §1, §2
Human chronic myeloid leukemia-derived cell line K562 cells (obtained from Health Science Research Resources Bank) were used as other hematopoietic cells to check expression of ε-globin. K562 cells were cultured and maintained as follows. RPMI medium (Roswell Park Memorial Institute 1640; manufactured by Thermo Fisher Scientific, Inc.) containing 10% FBS (manufactured by Corning, Inc.) and 1% penicillin-streptomycin (manufactured by Sigma-Aldrich Co. LLC) (hereinafter, referred to as “K562 medium”) was used, and the cells were subjected to suspension culture on a low-adherent 6-cm dish (manufactured by Sumitomo Bakelite Co., Ltd.). The floating cell-containing medium was collected once every 7 days, and centrifuged for 5 min at 1000 rpm in a centrifuge (SCTSBA; manufactured by Koki Holdings Co., Ltd.) to remove the supernatant. The K562 cells were suspended in 5 mL of K562 medium and seeded at 5×10^5 cells per dish, and cultured under conditions at 37° C. and 5% CO2.
It has been known that addition of an inducer (sodium butyrate) causes an increase in the expression of εs-globin in K562 cells. Thus, a change in expression of ε-globin after addition of sodium butyrate was checked over time. For differentiation culture of K562 cells, K562 medium containing 1 mM sodium butyrate (manufactured by Sigma-Aldrich Co. LLC) was used. The cells were suspended in 5 mL of the above medium and seeded at 5×10^5 cells per low-adherent 6-cm dish, and cultured under conditions at 37° C. and 5% CO2. The floating cell-containing medium was collected at Day 0, 2, 4, or 8 after the start of differentiation culture, and centrifuged for 5 min at 1000 rpm in a centrifuge (SCTSBA; manufactured by Koki Holdings Co., Ltd.) to remove the supernatant.
Like the evaluation protocol by real-time PCR in Example 1, the percentage of expression of each β-globin gene family member expressed in cells was determined by real-time PCR. […] About 30% or less of the β-globin gene family were an embryonic erythroblast marker ε-globin gene under any of the conditions.

Data set [5] relates to K562 cells. The note with it: known from the art; cited from earlier work.
[6] abbreviates: Day 2 of differentiation culture.
Setting [7] is: Day 4 of differentiation culture.
Setting [8] is: Day 8 of differentiation culture.

The structures appear in SMILES notation.

`CC(=O)NCCCCCCNC(C)=O` [HMBA, hexamethylene bisacetamide]: in data set [1] (setting [6]), the “Relative expression level of β-Globin (Hbb) in the β-globin gene family” value was 100 ± 0.0%, the “Relative expression level of γ-Globin (Hbg1) in the β-globin gene family” value is given as 0 ± 0.0% and the “Relative expression level of ε-Globin (Hbe1) in the β-globin gene family” value is listed as 0 ± 0.0%. Besides, in data set [1] (setting [7]), the “Relative expression level of β-Globin (Hbb) in the β-globin gene family” value is given as 100 ± 0.0%, the “Relative expression level of γ-Globin (Hbg1) in the β-globin gene family” value is recorded as 0 ± 0.0% and the “Relative expression level of ε-Globin (Hbe1) in the β-globin gene family” value is given as 0 ± 0.0%. In addition, in data set [1] (setting [8]), the “Relative expression level of β-Globin (Hbb) in the β-globin gene family” value turned out to be 99 ± 0.2%, the “Relative expression level of γ-Globin (Hbg1) in the β-globin gene family” value is recorded as 1 ± 0.1% and the “Relative expression level of ε-Globin (Hbe1) in the β-globin gene family” value is reported as 0 ± 0.0%.
For the compound `CC(=O)CC(=O)CCC(=O)O` [SA, succinylacetone], in data set [2], the viable cell count entry is given as “decreased” and the viability of cells result is given as “decreased”. Moreover, the “heme concentration compared to a solvent control” value in data set [2] (LC-MS, ng/10^6 cells, FIG. 12A) is recorded as “decrease”. Moreover, in data set [2] (LC-MS, ng/10^6 cells, FIG. 12B), the “PPIX (protoporphyrin IX) concentration” value is on record as “did not largely affect”. The “inhibition of aminolevulinic acid dehydrogenase, upstream in the heme biosynthesis pathway” value in data set [3] was “inhibits”.
With `CCCC(=O)[O-].[Na+]` [sodium butyrate], in data set [4] (setting [6]), the “Relative expression level of β-Globin (HBB) in the β-globin gene family” value is recorded as 0 ± 0.0%, the “Relative expression level of γ-Globin (HBG2/1) in the β-globin gene family” value amounted to 75 ± 1.6% and the “Relative expression level of ε-Globin (HBE1) in the β-globin gene family” value is reported as 25 ± 1.6%. Also, in data set [4] (setting [7]), the “Relative expression level of β-Globin (HBB) in the β-globin gene family” value was 0 ± 0.0%, the “Relative expression level of γ-Globin (HBG2/1) in the β-globin gene family” value is listed as 73 ± 1.3% and the “Relative expression level of ε-Globin (HBE1) in the β-globin gene family” value stood at 27 ± 1.3%. Besides, in data set [4] (setting [8]), the “Relative expression level of β-Globin (HBB) in the β-globin gene family” value turned out to be 0 ± 0.0%, the “Relative expression level of γ-Globin (HBG2/1) in the β-globin gene family” value is 70 ± 1.9% and the “Relative expression level of ε-Globin (HBE1) in the β-globin gene family” value turned out to be 30 ± 1.9%. In data set [5], the “expression of ε-globin in K562 cells after addition of inducer” value is reported as “increase”.
Consider `C[C@H]1[C@@H](O)O[C@@H]2O[C@@]3(C)CC[C@H]4[C@H](C)CC[C@@H]1[C@@]24OO3` [DHA, dihydroartemisinin], for which, in data set [2], the viable cell count result is “decreased” and the viability of cells entry is listed as “decreased”.
